# Laboratory results as given in US9457015B2, “2-aminothiazole derivative and anti-cancer composition comprising same as active ingredient” (Chung-Ang University Industry-Academic Cooperation …, priority 2012, dated 2016).
# How the values were obtained:
# [1] = test system: lung cancer cells (A549); assay: Cytotoxicity by MTT analysis, A549; assay type: cell-based
# Procedure: (§1) Toxicity to cells was analyzed using 3-[4,5-dimethylthiazol-2-yl]-2,5-diphenyl-tetra zolium bromide (MTT) analysis. As cancer cells to be measured, 8.0×10^3 cells/mL was aliquoted on a 96-well culture dish and then the cells were cultured for 24 hours. The next day, the synthesized compound was dissolved in a medium according to each concentration, and diluted in a medium according to each concentration. The medium in which the compound was dissolved according to each concentration was added to a culture dish at […], dimethyl sulfoxide (DMSO) was added to a control well so as to have the same volume as the added compound. After the addition, the cells were cultured in an incubator in 5% CO2 at 37° C., and then survival capability of cells was measured at 24 hours and 48 hours after the culture. After the medium was removed, the cells were washed twice using PBS, then 200 μL of a solution containing 1 mg/mL of MTT (Sigma-Aldrich Chemical Co., USA) was added thereto, and then the cells were further cultured for 3 hours in a CO2 incubator at 37° C. The 96-well culture dish was centrifuged for 10 minutes at 2000 rpm to remove the MTT solution. […] The solution was added to the 96-well culture dish, and then absorbance was measured at 540 nm. Relative absorbance was calculated using absorbance according to concentration of drugs divided by absorbance of a control group (drug-untreated group).
# [2] = test system: ovarian cancer cells (SK-OV-3); assay: Cytotoxicity by MTT analysis, SK-OV-3; assay type: cell-based; details: Homo sapiens, SK-OV-3, MTT analysis, read-out: IC50 (nM) SK-OV3 Ovarian cancer
# Procedure: as §1
# [3] = test system: prostate cancer cell line, PC3; assay: Cytotoxicity by MTT analysis, PC3; assay type: cell-based; details: PC3 prostate cancer cells
# Procedure: The prostate cancer cell line, PC3 was obtained from Korean Cell Line Bank. After adding Rosewell Park Memorial Institute (RPMI) 1640 cell culture medium (LM001-01, WelGEN) containing 10% fetal bovine serum (FBS), 100 units/mL of penicillin and 100 μg/mL of streptomycin to a 100 Φ dish, cells were inoculated on the dish and cultured in a CO2 incubator (VS-9000C, vision) in 5% CO2/95% humidified air atmosphere at 37° C.
# Toxicity to cells was analyzed using 3-[4,5-dimethylthiazol-2-yl]-2,5-diphenyl-tetra zolium bromide (MTT) analysis. As cancer cells to be measured, 8.0×10^3 cells/mL was aliquoted on a 96-well culture dish and then the cells were cultured for 24 hours. The next day, the synthesized compound was dissolved in a medium according to each concentration, and diluted in a medium according to each concentration. […] After the addition, the cells were cultured in an incubator in 5% CO2 at 37° C., and then survival capability of cells was measured at 24 hours and 48 hours after the culture. […] The solution was added to the 96-well culture dish, and then absorbance was measured at 540 nm. Relative absorbance was calculated using absorbance according to concentration of drugs divided by absorbance of a control group (drug-untreated group).
# [4] = test system: skin cancer cells (SK-MEL2); assay: Cytotoxicity by MTT analysis, SK-MEL2; assay type: cell-based
# Procedure: as §1
# [5] = test system: prostate cancer cell line, PC3, transplanted; assay: Anti-cancer effect in vivo in mice with transplanted PC3 tumors; details: 2 mg/kg/day i.v. for four consecutive days, compared 7 days after stoppage
# Procedure: The anti-cancer activity of the compound according to the present invention, HF-154 was measured in in-vivo using mice in which a prostate cancer cell line, PC3, was transplanted. An experimental group included a group of two mice to which an excipient (vehicle) was administered and a group of four mice to which the compound according to the present invention, HF-154, was administered. The compound according to the present invention, HF-154, was administered to each mouse in an amount of 2 mg/kg/day (100 μL i.v.). First, after administration for four consecutive days, administration was stopped, and tumor growth was compared at 7 days after the stoppage.
# [6] = test system: breast cancer cells (MCF7); assay: Cytotoxicity by MTT analysis, MCF7; assay type: cell-based; details: Homo sapiens
# Procedure: as §1
# [7] = test system: colorectal cancer cells (HCT15); assay: Cytotoxicity by MTT analysis, HCT15; assay type: cell-based
# Procedure: as §1
smiles,measurement,setting,value
"O=C(CCc1ccco1)Nc1ncc(-c2ccc(F)cc2)s1 [HF-154, N-(5-(4-fluorophenyl)thiazol-2-yl)-3-(furan-2-yl)propanamide]",IC50,[1],~3 nM
same,IC50,[2],~0.5 nM
same,IC50,[3],~0.1 nM
same,IC50,[4],~5 nM
same,size of the tumor compared to the excipient administration group,[5],significantly reduced
same,IC50,[6],~0.3 nM
same,IC50,"[7]; Homo sapiens, HCT-15, MTT analysis",1 to 5 nM
same,IC50,[7]; MTT analysis,~1 nM
